Columns and labels:
[1] = system: neural stem cells; assay: Cytotoxicity of the method of introduction into cells; assay type: cell-based
Source text: It became clear from this that VHL (157–171) has an activity of inducing neuronal differentiation.

[2] = system: Parkinson's disease model rat; assay: Pathological and histological study of the brain after grafting; assay type: in vivo; conditions: peptide-introduced neural stem cells grafted to striatum
Protocol: (§1) Next, it was studied whether the symptom could be improved by grafting of neural stem cells into which VHL (157–171) oligopeptide was introduced within the central nervous system of a nerve disease animal. Parkinson's model rat as a nerve disease animal was prepared by injection of microdose of 6-hydroxydopamine into brain of rat and depletion of unilateral dopamine producing cells. Two weeks later, apomorphine induced rotation was studied and rat rotating not less than 7 times per one minute was determined as Parkinson's disease model. 10^5 neural stem cells into which VHL (157–171) oligopeptide was introduced were grafted to striatum of cerebrum of rat. After grafting, apomorphine induced rotation was determined every week. […] As behavior analysis, paw reaching test (a test wherein an ability to eat pellets placed on stairs by extending one side injured leg is studied.) was conducted and […] (FIG. 6).

[3] = system: Parkinson's model rat; assay: Paw reaching test after grafting of VHL peptide-introduced neural stem cells; assay type: in vivo; conditions: peptide-introduced neural stem cells grafted to striatum
Protocol: as §1

[4] = system: neural stem cells derived from the adult rat hippocampus; assay: VHL oligopeptide introduced in vitro into neural stem cells using BioPORTER Reagent; assay type: cell-based; conditions: for morphological change compared with control group: 8 hours after introduction
Protocol: The oligopeptide prepared according to the above-described method was introduced in vitro into neural stem cells derived from the adult rat hippocampus at a concentration of 10–1000 ng/ml using BioPORTER Reagent (BioPORTER protein delivery reagent: Gene Therapy Systems, Inc., San Diego, Calif., U.S.A.). […] When this was immunofluorescence stained at a concentration of 100 ng/mL 24 hours after introduction, it was confirmed that 72% of them was differentiated into neurons, and 12% was differentiated into neuroglia cells (FIG. 4). Thereby, it was clarified that VHL could induce neuronal differentiation even by the method of peptide introduction not by introduction of gene.

[5] = system: Parkinson's model rat; assay: Apomorphine induced rotation after grafting of VHL peptide-introduced neural stem cells; assay type: in vivo; conditions: after two months; 10^5 peptide-introduced neural stem cells grafted to striatum
Protocol: as §1

[6] = system: skin stem cells; assay: Induction of differentiation of skin stem cells by VHL protein (FIG. 1); assay type: cell-based; conditions: neurofilament positive neuron
Source text: FIG. 1 is a fluorescence photomicrograph showing induction of differentiation of skin stem cell into neurofilament positive neuron.
A VHL gene, which is the causative gene of von Hippel-Lindau disease, a hereditary disease causing brain tumor (hemangioblastoma) or renal cancer, is a kind of a tumor suppressor gene. This gene was isolated from human chromosome 3 by Dr. Zbar et al.'s group (U.S.A.) in 1993. It has been reported that the VHL gene and the protein are expressed in neurons. However, the function of this gene in the nervous system was unknown. We considered that the gene may be involved in the formation of the nervous system at fetal developmental stages and studied differentiation over time of neural stem cells isolated from a rat fetal brain. […] As a result, when VHL gene is introduced to express VHL protein, neural stem cells are differentiated into neurons. Thus, it was clarified that VHL protein has a function to induce differentiation of nerves.

[7] = 100 ng/mL, 24 hours after introduction, BioPORTER Reagent

For “Ac-TLKERCLQVVRSLVKKKWKMRRNQFWVKVQRGK-NH2 [VHL (157–171)-ANT]”, the cytotoxicity [1] was “does not show cytotoxicity”.

“TLKERCLQVVRSLVK [VHL (157–171) oligopeptide]” was tested, and the “grafted cells taken within the brain” value [2] was “about 70%”, the “type of the grafted cells taken within the brain” value [2] was “most of them were neurofilament positive neurons” and the “type of the grafted cells taken within the brain” value ([2]; listed as VHL gene) was “most of them are neuronal filaments”. The “behavior analysis (paw reaching test, apomorphine induced rotation) compared with control group” value [3] was “significant improvement”, the “cells differentiated into neuroglia cells (immunofluorescence staining)” value [4, 7] was 12% and the “cells differentiated into neurons (immunofluorescence staining)” value [4, 7] was 72%. The “morphological change compared with control group” value ([4]; BioPORTER Reagent) was “more marked as compared with the control group”, the “morphological change compared with control group” value ([4]; BioPORTER Reagent, listed as VHL peptide) was “marked as compared with control group” and the “concentration at which neural stem cells showed inclination to differentiate to neuron morphologically, elongation of neural spine observed” value ([4]; after 4 hours, introduced at 10–1000 ng/ml using BioPORTER Reagent) was “not less than 10 ng/ml”. For the same substance, the “rats showing zero of apomorphine induced rotation” value [5] was “about 30%”.

With “VHL protein: von Hippel-Lindau protein consisting of 213 full length amino acids” the “differentiation of skin stem cells into neurons” value [6] was “induces differentiation of skin stem cells into neurons”.
